Laboratory results reported in ChEMBL document CHEMBL1862790, “Optimisation of fenarimol series for the treatment of Chagas disease”.
Where “and” joins values, the source holds several entries; their conditions need not be identical. Equal entries are not always repeated.

How the values were obtained:
Trypanosoma cruzi [1] = assay: microbe, parasite or virus in culture; type: functional, organism-based, Tulahuen LacZ, Clone C4
[2] = DNDI: Cytotoxicity against L-6 rat myoblasts from skeletal muscle cells; conditions: L6 rat skeletal muscle myoblast cells
Trypanosoma cruzi [3] = assay: microbe, parasite or virus in culture; type: functional, Tulahuen LacZ, Clone C4
[4] = Trypanosoma cruzi, Tulahuen LacZ, Clone C4

IC50 (Trypanosoma cruzi [1]; [4])	IC90 (Trypanosoma cruzi [3]; [4])	Compound	IC50 ([2]; IC50)	IC50 (Trypanosoma cruzi [1])	IC50 [2]	IC90 (Trypanosoma cruzi [3])
1220 nM	3020 nM	CS(=O)(=O)NC1CCN(C(c2ccc(C(F)(F)F)cc2)c2cnccn2)CC1 (stereo not drawn)	> 100000 nM			
345 nM	696 nM	N#Cc1ccc(C(c2cccnc2)N2CCC(NC(=O)c3ccc(C(F)(F)F)cc3F)CC2)cc1 (stereo not drawn)	76800 nM			
201 nM	505 nM	OC(c1ccc(Cl)cc1)(c1cccnc1)c1nccs1 (stereo not drawn)	> 100000 nM			
178 nM	332 nM	O=C(C1CC1)N1CCN(C(c2cncnc2)c2ccc(C(F)(F)F)cc2F)CC1 (stereo not drawn)	> 100000 nM			
28.5 nM	77.5 nM	Cn1cc(C(=O)NC2CCN(C(c3ccc(C#N)cc3)c3cccnc3)CC2)c(C(F)(F)F)n1 (stereo not drawn)	> 100000 nM			
62 nM	220 nM	CC(C)C(=O)N1CCN(C(c2cccnc2)c2ccc(Cl)cc2F)CC1 (stereo not drawn)	> 100000 nM			
> 1000 nM	> 1000 nM	CCC(=O)N1CCC(NC(c2ccc(C(F)(F)F)cc2)c2cnccn2)CC1 (stereo not drawn)	> 100000 nM			
> 1000 nM	> 1000 nM	CN1CCN(C(c2ccc(Cl)cc2)c2cccnc2)CC1 (stereo not drawn)	> 100000 nM			
> 10000 nM	> 10000 nM	CON=C(Cc1ccccc1)c1ccc(Cl)cc1	70200 nM			
21.5 nM	114 nM	O=C(NC1CCN(C(c2cncnc2)c2ccc(Cl)cc2F)CC1)c1ccc(F)cc1 (stereo not drawn)	60100 nM			
29 nM	120 nM	Cc1ncoc1C(=O)NC1CCN(C(c2ccc(C(F)(F)F)cc2)c2cccnc2)CC1 (stereo not drawn)	84700 nM			
102 nM	249 nM	Cn1cc(C(NC2CCN(c3ccc(C(F)(F)F)cc3)CC2)c2cccnc2)cn1 (stereo not drawn)	> 100000 nM			
76 nM	380 nM	O=C(Nc1ccccc1)N1CCC(NC(c2ccc(C(F)(F)F)cc2)c2cccnc2)CC1 (stereo not drawn)	64100 nM			
8.5 nM	57.5 nM	O=C(NC1CCN(C(c2ccc(C(F)(F)F)cc2)c2cccnc2)CC1)c1ccccc1 (stereo not drawn)	62600 nM			
> 1000 nM	> 1000 nM	CCC(=O)NC(c1ccc(C(F)(F)F)cc1)c1cnccn1 (stereo not drawn)	> 100000 nM			
63 nM	190 nM	CC(C)(C)NC(=O)NC1CCN(C(c2ccc(Cl)cc2)c2cccnc2)CC1 (stereo not drawn)	> 100000 nM			
140 nM	500 nM	OC(c1ccc(Cl)cc1)(c1cccnc1)c1cncs1 (stereo not drawn)	> 100000 nM			
216 nM	658 nM	Cc1nc(C)c(C(=O)N2CCC(NC(c3ccc(C(F)(F)F)cc3)c3cccnc3)CC2)s1 (stereo not drawn)	> 100000 nM			
> 10000 nM	> 10000 nM	Cc1ccsc1C(O)(c1ccc(Cl)cc1)c1ccc(Cl)cc1	58800 nM			
288 nM	600 nM	CSc1ncc(C(O)(c2ccc(Cl)cc2)c2cccnc2)cn1 (stereo not drawn)	> 100000 nM			
250 nM	870 nM	O=C(NC1CCN(C(c2ccc(C(F)(F)F)cc2)c2cnccn2)CC1)C1CCCCC1 (stereo not drawn)	> 100000 nM			
570 nM	990 nM	O=C(C1CCCCC1)N1CCC(NC(c2cnccn2)c2ccc(F)cc2F)CC1 (stereo not drawn)	> 100000 nM			
122 nM	318 nM	COc1cncc(C(O)(c2ccc(C(F)(F)F)cc2)c2ccc(Cl)cc2F)c1 (stereo not drawn)	67400 nM			

IC50 (Trypanosoma cruzi [1]; [4])	IC90 (Trypanosoma cruzi [3]; [4])	Compound	IC50 ([2]; IC50)	IC50 (Trypanosoma cruzi [1])	IC50 [2]	IC90 (Trypanosoma cruzi [3])
140 nM	820 nM	OC(c1ccc(Cl)cc1)(c1cncnc1)c1ccccc1F (stereo not drawn)	> 100000 nM			
46400 nM	93000 nM	O/N=C(\c1ccc(Cl)cc1)c1ccccc1Cl	54900 nM			
86.5 nM	426 nM	NC(=O)c1cccc(C(O)(c2cncnc2)c2ccc(Cl)cc2F)c1 (stereo not drawn)	> 100000 nM			
630 nM	> 1000 nM	CS(=O)(=O)NC1CCN(C(c2ccc(Cl)cc2)c2cncnc2)CC1 (stereo not drawn)	> 100000 nM			
> 1000 nM	> 1000 nM	CN(C)C(=O)N1CCC(NC(c2cnccn2)c2ccc(F)cc2F)CC1 (stereo not drawn)	> 100000 nM			
66 nM	320 nM	O=S(=O)(c1ccccc1)N1CCN(C(c2ccc(Cl)cc2)c2cncnc2)CC1 (stereo not drawn)	> 76100 nM			
32 nM	80 nM	Clc1ccc(C(NCC2CCCCC2)c2cccnc2)cc1 (stereo not drawn)	59700 nM			
4750 nM	> 10000 nM	OC(c1ccc(Cl)cc1)c1cccnc1 (stereo not drawn)	> 100000 nM			
210 nM	710 nM	CC(C)(C)OC(=O)N1CCC(NC(c2cnccn2)c2ccc(F)cc2F)CC1 (stereo not drawn)	> 100000 nM			
490 nM	792 nM	O=C(NC1CC1)N1CCN(C(c2cncnc2)c2ccc(C(F)(F)F)cc2F)CC1 (stereo not drawn)	> 100000 nM			
230 nM	720 nM	CC(C)S(=O)(=O)N1CCN(C(c2ccc(Cl)cc2)c2cncnc2)CC1 (stereo not drawn)	> 100000 nM			
62 nM	220 nM	Cc1cc(C(=O)NC2CCN(C(c3ccc(C#N)cc3)c3cccnc3)CC2)n(C(C)(C)C)n1 (stereo not drawn)	> 100000 nM			
17 nM	30.5 nM	Fc1ccccc1N1CCC(NC(c2ccc(C(F)(F)F)cc2)c2cccnc2)CC1 (stereo not drawn)	53100 nM			
18 nM	38 nM	O=S(=O)(C1CCCCC1)N1CCN(C(c2cncnc2)c2ccc(Cl)cc2F)CC1 (stereo not drawn)	61300 nM			
264 nM	773 nM	Cc1cc(C(=O)N2CCC(NC(c3ccc(C(F)(F)F)cc3)c3cccnc3)CC2)n(C)n1 (stereo not drawn)	> 100000 nM			
52 nM	450 nM	OC(c1ccc(Cl)cc1)(c1cncnc1)c1ccc(Cl)cc1F (stereo not drawn)	54100 nM			
6040 nM	> 10000 nM	CCn1cc(C(NC2CCN(c3ccc(S(C)(=O)=O)cc3)CC2)c2cccnc2)cn1 (stereo not drawn)	> 100000 nM			
72 nM	280 nM	O=C(NC1CCN(C(c2ccc(C(F)(F)F)cc2)c2cccnc2)CC1)C1CC1 (stereo not drawn)	> 100000 nM			
172 nM	756 nM	Cc1cc(C(=O)NC2CCN(C(c3cncnc3)c3ccc(Cl)cc3F)CC2)[nH]n1 (stereo not drawn)	> 100000 nM			
> 10000 nM	> 10000 nM	CS(=O)(=O)NC(c1ccc(C(F)(F)F)cc1)c1cnccn1 (stereo not drawn)	> 100000 nM			
180 nM		O=C(C1CC1)N1CCN(C(c2cncnc2)c2ccc(Cl)cc2F)CC1 (stereo not drawn)	> 100000 nM	171 nM		306 nM and 614 nM
15 nM	59 nM	CC(C)(C)OC(=O)N1CCC(NC(c2ccc(C(F)(F)F)cc2)c2cccnc2)CC1 (stereo not drawn)	57600 nM			
281 nM	556 nM	N#Cc1ccc(C(c2cccnc2)N2CCN(C(=O)C3CC3)CC2)cc1 (stereo not drawn)	> 100000 nM			

IC50 (Trypanosoma cruzi [1]; [4])	IC90 (Trypanosoma cruzi [3]; [4])	Compound	IC50 ([2]; IC50)	IC50 (Trypanosoma cruzi [1])	IC50 [2]	IC90 (Trypanosoma cruzi [3])
62 nM	> 100 nM	CC(C)C(CO)N1CCC(NC(c2ccc(Cl)cc2)c2cccnc2)CC1 (stereo not drawn)	> 100000 nM			
24 nM	63 nM	Fc1ccc(N2CCC(NC(c3ccc(Cl)cc3)c3cccnc3)CC2)cc1C(F)(F)F (stereo not drawn)	52300 nM			
> 1000 nM	> 1000 nM	CCS(=O)(=O)NC(c1ccc(C(F)(F)F)cc1)c1cnccn1 (stereo not drawn)	> 100000 nM			
29 nM	81 nM	CC(C)n1cc(C(NC2CCN(c3ccc(C(F)(F)F)cc3)CC2)c2cccnc2)cn1 (stereo not drawn)	77000 nM			
381 nM	630 nM	Clc1ccc(C(=NN2CCCCC2)c2cccnc2)cc1	56800 nM			
> 1000 nM	> 1000 nM	CC(C)S(=O)(=O)NC(c1ccc(C(F)(F)F)cc1)c1cnccn1 (stereo not drawn)	> 100000 nM			
2510 nM	70000 nM	OC(c1ccccc1)(c1cncnc1)c1ccccc1Cl (stereo not drawn)	> 100000 nM			
> 1000 nM	> 1000 nM	N#CC(c1ccc(Cl)cc1)N1CCN(c2ccccc2)CC1 (stereo not drawn)	> 100000 nM			
160 nM	400 nM	CC(C)(C)OC(=O)NC1CCN(C(c2ccc(C(F)(F)F)cc2)c2cnccn2)CC1 (stereo not drawn)	56700 nM			
59 nM	160 nM	N#Cc1ccc(C(O)(c2ccc(Cl)cc2)c2cccnc2)cc1 (stereo not drawn)	> 100000 nM			
47.5 nM	150 nM	Cc1cc(C(=O)N2CCC(NC(c3ccc(C(F)(F)F)cc3)c3cccnc3)CC2)n(C(C)(C)C)n1 (stereo not drawn)	71700 nM			
61 nM	180 nM	CC(C)Oc1ccc(C(c2cccnc2)N2CCC(NC(=O)c3ccccc3)CC2)cc1 (stereo not drawn)	> 100000 nM			
99.5 nM	280 nM	Cn1cc(C(=O)N2CCC(NC(c3ccc(C(F)(F)F)cc3)c3cccnc3)CC2)c(C(F)(F)F)n1 (stereo not drawn)	77100 nM			
169 nM	300 nM	Cn1cc(C(=O)NC2CCN(C(c3ccc(C#N)cc3)c3cccnc3)CC2)cn1 (stereo not drawn)	54300 nM			
28 nM	88 nM	CC(C)S(=O)(=O)N1CCN(C(c2ccc(Cl)cc2)c2cccnc2)CC1 (stereo not drawn)	> 100000 nM			
7330 nM	15500 nM	OC(c1cncnc1)(c1ccccn1)c1ccccc1Cl (stereo not drawn)	> 100000 nM			
220 nM	671 nM	N#Cc1ccc(C(c2cccnc2)N2CCC(NC(=O)c3ccno3)CC2)cc1 (stereo not drawn)	> 100000 nM			
17 nM	25 nM	N#Cc1cnc(N2CCC(NC(c3ccc(Cl)cc3)c3cccnc3)CC2)s1 (stereo not drawn)	48600 nM			
120 nM	730 nM	CCN(CC)C(=O)NC1CCN(C(c2ccc(Cl)cc2)c2cccnc2)CC1 (stereo not drawn)	> 100000 nM			
> 1000 nM	> 1000 nM	O=S(=O)(NC(c1ccc(C(F)(F)F)cc1)c1cnccn1)C1CCCCC1 (stereo not drawn)	85000 nM			
220 nM	570 nM	CC(C)S(=O)(=O)N1CCC(NC(c2ccc(C(F)(F)F)cc2)c2cnccn2)CC1 (stereo not drawn)	> 100000 nM			

Compound	IC50 (Trypanosoma cruzi [1]; [4])	IC90 (Trypanosoma cruzi [3]; [4])	IC50 ([2]; IC50)	IC50 (Trypanosoma cruzi [1])	IC50 [2]	IC90 (Trypanosoma cruzi [3])
OC(c1ccc(Cl)cc1)(c1cccnc1)c1ccccc1F (stereo not drawn)	54 nM	152 nM		34.8 nM	> 100000 nM	179 nM
CC1=C(C(=O)Nc2ccccc2)SCCO1 [CARBOXIN]	22400 nM	57500 nM			> 100000 nM	
Cc1ccccc1C(O)(c1ccc(Cl)cc1)c1cccnc1 (stereo not drawn)	370 nM	2780 nM			62000 nM	
